What was measured:
Format in all cases: cell-based
h5-HT3A = target: T1, h5-HT3A (Homo sapiens, UniProt P46098); test: FMP assay at h5-HT3A-HEK293 cells; settings: concentrations up to 100 μM, data not shown
T1 construct: expressed in transfected cells
T1 sequence (P46098 24-478): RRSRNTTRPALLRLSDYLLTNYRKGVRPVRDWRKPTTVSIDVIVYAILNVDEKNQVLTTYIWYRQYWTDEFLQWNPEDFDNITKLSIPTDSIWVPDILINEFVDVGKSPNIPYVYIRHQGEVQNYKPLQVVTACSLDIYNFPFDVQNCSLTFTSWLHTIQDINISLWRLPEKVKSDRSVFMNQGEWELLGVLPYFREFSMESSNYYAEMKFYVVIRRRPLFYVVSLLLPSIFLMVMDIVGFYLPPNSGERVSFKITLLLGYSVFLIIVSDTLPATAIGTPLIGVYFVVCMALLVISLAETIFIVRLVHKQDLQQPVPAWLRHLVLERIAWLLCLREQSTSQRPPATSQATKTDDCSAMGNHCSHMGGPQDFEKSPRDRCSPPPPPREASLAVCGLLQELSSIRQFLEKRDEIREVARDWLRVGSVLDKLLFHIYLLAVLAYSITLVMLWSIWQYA

ZAC = target: T2, ZAC (Homo sapiens, UniProt Q401N2); test: FMP assay at ZAC-HEK293 cells
T2 sequence (Q401N2 26-412): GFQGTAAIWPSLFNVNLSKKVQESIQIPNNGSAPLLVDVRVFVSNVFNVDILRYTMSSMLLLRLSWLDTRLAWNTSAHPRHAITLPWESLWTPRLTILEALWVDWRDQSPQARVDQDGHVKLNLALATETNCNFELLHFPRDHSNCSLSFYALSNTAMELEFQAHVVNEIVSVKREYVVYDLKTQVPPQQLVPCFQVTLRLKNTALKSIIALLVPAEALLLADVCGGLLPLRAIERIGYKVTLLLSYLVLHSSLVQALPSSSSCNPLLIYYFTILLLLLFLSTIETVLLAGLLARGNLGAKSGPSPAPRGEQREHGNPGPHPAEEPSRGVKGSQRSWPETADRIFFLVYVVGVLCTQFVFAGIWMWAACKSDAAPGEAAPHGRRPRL
Experimental: The screening of the 1,680 compounds in the compound library for antagonist activity at the ZAC-HEK293 cell line was performed in the FMP assay essentially as previously described. The day before the assay, cells were split into poly-D-lysine-coated black 96-well plates with clear bottoms (BD Biosciences, Palo Alto, CA) (6 × 10^4 cells/well). The following day, the culture medium was aspirated and the wells were washed once with 100 μl assay buffer (140 mM NaCl, 4.7 mM KCl, 2.5 mM CaCl2, 1.2 mM MgCl2, 11 mM HEPES, 10 mM D-glucose, pH 7.4), after which 100 μl assay buffer supplemented with FMP dye (0.5 mg/ml) and the various test compounds were added to the wells. The plate was then incubated at 37 °C for 30 min and assayed in a NOVOStar plate reader (BMG Labtechnologies, Offenburg, Germany) measuring emission at 560 nm caused by excitation at 530 nm before and up to 1 min after the addition of 33 μl of agonist solution. In the screening, the 1,680 compounds in the compound library were tested at assay concentrations in the 10–30 μM range, using Cu^2+ as agonist at an assay concentration of 200 μM.
Data from the FMP assay was analysed using KaleidaGraph 3.08 (Synergy Software, Reading, PA). Concentration-response curves for Cu^2+ and concentration-inhibition curves for compound 1 were constructed based on the difference in the relative fluorescence units (RFU) between the maximal fluorescence recorded before and after application of Cu^2+. The data were fitted to sigmoidal curves with variable slopes using nonlinear regression, and EC50 (Cu^2+) and IC50 (compound 1) values were derived from these equations.

hEAAT3 = target: T3, hEAAT3 (Homo sapiens, UniProt P43005); test: FMP assay at hEAAT3-HEK293 cells (glutamate-induced response); settings: concentrations up to 100 μM, data not shown
T3 construct: expressed in transfected cells
T3 sequence (P43005 1-524): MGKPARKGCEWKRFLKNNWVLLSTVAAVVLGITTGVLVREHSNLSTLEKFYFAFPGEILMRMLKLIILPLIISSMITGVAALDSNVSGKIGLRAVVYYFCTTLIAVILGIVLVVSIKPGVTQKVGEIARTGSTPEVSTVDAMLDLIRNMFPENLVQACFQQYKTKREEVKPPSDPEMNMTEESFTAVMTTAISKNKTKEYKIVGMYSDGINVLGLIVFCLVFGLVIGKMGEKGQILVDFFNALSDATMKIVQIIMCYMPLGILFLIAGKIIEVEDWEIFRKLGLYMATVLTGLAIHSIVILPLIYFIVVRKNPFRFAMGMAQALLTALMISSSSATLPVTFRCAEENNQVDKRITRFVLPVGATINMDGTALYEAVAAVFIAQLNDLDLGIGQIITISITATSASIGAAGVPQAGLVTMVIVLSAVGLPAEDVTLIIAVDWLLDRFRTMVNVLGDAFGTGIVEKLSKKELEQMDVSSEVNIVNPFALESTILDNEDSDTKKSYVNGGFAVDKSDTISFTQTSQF

rα3β4-nAChR = target: T4, rα3β4-nAChR (Rattus norvegicus, UniProt P04757+P12392); test: FMP assay at rα3β4-nAChR-HEK293 cells ((S)-nicotine-induced response); settings: concentrations up to 100 μM, data not shown
T4 construct: expressed in transfected cells
T4 sequence (P04757 26-499): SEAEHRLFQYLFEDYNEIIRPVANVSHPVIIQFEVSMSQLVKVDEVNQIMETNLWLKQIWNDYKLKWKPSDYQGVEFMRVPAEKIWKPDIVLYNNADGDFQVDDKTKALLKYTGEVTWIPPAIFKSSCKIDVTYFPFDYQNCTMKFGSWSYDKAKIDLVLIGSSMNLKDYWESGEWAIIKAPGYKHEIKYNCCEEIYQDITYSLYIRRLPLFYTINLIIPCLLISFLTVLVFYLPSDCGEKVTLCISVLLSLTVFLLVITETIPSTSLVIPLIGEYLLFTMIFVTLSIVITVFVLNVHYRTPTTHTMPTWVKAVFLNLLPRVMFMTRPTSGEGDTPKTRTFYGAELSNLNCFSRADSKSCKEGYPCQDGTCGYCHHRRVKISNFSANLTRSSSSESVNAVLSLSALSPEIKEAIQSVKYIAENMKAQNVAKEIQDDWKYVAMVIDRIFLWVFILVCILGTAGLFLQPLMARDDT
T4 sequence (P12392 22-495 limits assumed): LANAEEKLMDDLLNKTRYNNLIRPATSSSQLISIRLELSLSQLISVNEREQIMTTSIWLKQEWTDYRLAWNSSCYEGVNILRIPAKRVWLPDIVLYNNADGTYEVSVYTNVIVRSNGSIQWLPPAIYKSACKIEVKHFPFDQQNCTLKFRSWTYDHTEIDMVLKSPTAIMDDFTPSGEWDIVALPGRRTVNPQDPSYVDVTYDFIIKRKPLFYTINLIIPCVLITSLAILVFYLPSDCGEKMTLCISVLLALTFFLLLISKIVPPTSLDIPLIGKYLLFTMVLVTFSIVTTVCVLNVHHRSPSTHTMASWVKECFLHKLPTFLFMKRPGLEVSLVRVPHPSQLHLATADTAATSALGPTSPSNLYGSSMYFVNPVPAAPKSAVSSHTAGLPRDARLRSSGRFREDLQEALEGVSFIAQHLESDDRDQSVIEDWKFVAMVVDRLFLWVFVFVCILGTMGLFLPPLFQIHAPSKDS

Effect on 5-HT-induced response (h5-HT3A): did not affect | IC50 (ZAC): 6.1 µM | Effect on glutamate-induced response (hEAAT3): did not affect | Effect on (S)-nicotine-induced response (rα3β4-nAChR): did not affect
Structure (SMILES): COC(=O)c1sc(NC(=O)c2cc(Br)ccc2Cl)nc1C [compound 1, 2-(5-bromo-2-chlorobenzamido)-4-methylthiazole-5-methyl ester]
